Experimental data: patent US20180015101A1, “COMPOSITIONS AND METHODS FOR ANTIGEN-SPECIFIC TOLERANCE” (INSERM (INSTITUT NATIONAL DE LA SANTÉ ET DE LA RECHERCHE …, priority 2014, published 2018)

Tests used:
Rip-OVA^high mice = experiment: Diabetes induction in Rip-OVAhigh mice by transfer of autoreactive CTLs after immunization; type: in vivo; conditions: intradermal injection one day before CTL transfer
Experimental: Intradermal immunization of mice and diabetes induction: Eight to ten week-old Rip-OVAhigh mice received two intradermal injections in the back with 70 μg of CoPP (Livchem) prepared as described and 20 μg of endofree ovalbumin (Hyglos) in 10 μl. One hundred and forty micrograms of MnPP (Livchem) prepared as described (18) was added to the preparation for HO-1-inhibition experiments. Forty micrograms of Alexa Fluor® 488 ovalbumin (Molecular Probes) has been used for phagocytosis assay. For diabetes induction, mice were injected i.v. the following day with 0.5×10^5 autoreactive cytotoxic OT-I CD8^+ T cells (purity >95%) previously co-cultured or not with MHC-II^+ or F4/80^+ cells during 4 hours. […]
Histological analysis: For evaluation of insulitis, pancreata were snap-frozen and cryosections (8 μm thick) were acetone-fixed. Sections were stained with H&E (Thermo Electron Corp.), and the degree of insulitis was evaluated microscopically.
Light-sheet-based fluorescent microscopy analysis: Animals were perfused with PFA 4% and washed with PBS. […] For GFP fluorescence imaging, we used a 525/50 band pass filter on the turret. […] The images stacks are analyzed using ImageJ software (Rasband, W. S., ImageJ, U. S. National Institutes of Health, Bethesda, Md., USA, http://imagej.nih.gov/ij/, 1997-2012).

Human PBMC = experiment: HO-1 expression in human PBMC after in vitro hemin treatment; type: cell-based; conditions: 4 hours in vitro
Experimental: Human and non-human primate PBMC: Human PBMCs were obtained at the Etablissement Français du Sang in Nantes from blood of healthy donors. After Ficoll-Paque density gradient centrifugation (GE Healthcare), PBMC were cultured in RPMI 1640 (Gibco) supplemented with 10% fetal bovine serum (Eurobio), 1% glutamine (Gibco), 50 IU/mL penicillin 50 IU/mL streptomycin (Gibco) in presence or not of CoPP or hemin during 4 hours.
Flow Cytometry: Single-cells suspensions of spleen and lymph nodes were stained with anti-CD8 (clone 53-6.7), anti-CD45.1 (clone A20), anti-CD49b/α2 (clone DX5), anti-CD49d/α4 (clone RI-2), anti-ITGAE/αE (clone M290), anti-CD29/β1-integrin (clone Ha2/5), anti-CD18/β2-integrin (clone C71/16), anti-CD61/β3-integrin (clone 2C9.G2), anti-CD62E (clone 10E9.6), anti-CD62L (clone Mel14), anti-PSGL1 (clone 2PH1), anti-ICAM-1 (clone 3E2), anti-VCAM-1 (clone 429), anti-CD183/CXCR3 (clone CXCR3-173), anti-CD195/CCR5 (clone C34-3448), anti-GITR (clone DTA-1), anti-PD-1 (clone J43), anti-CD28 (clone 37.51), anti-CD38 (clone 90), anti-CD69 (clone H1.2F3), anti-CD44 (clone IM7), anti-CD107b (clone ABL-93) antibodies. All antibodies are from BD Biosciences. […]

[1] = test system: Human monocytic THP-1 cells; experiment: HO-1 expression in THP-1 cells after HO-1 inducer treatment; type: cell-based; conditions: 16 hours in vitro
Experimental: Human THP-1 monocytic cell line and co-culture with CD8^+ T cells clones: THP-I cells were cultured in RPMI 1640 (Gibco) supplemented with 10% fetal bovine serum (Eurobio), 1% glutamine (Gibco), 50 IU/mL penicillin 50 IU/mL streptomycin (Gibco) and 200 nM PMA (Sigma-Aldrich) under standard conditions as previously described (36).
(§1) Flow Cytometry: Single-cells suspensions of spleen and lymph nodes were stained with anti-CD8 (clone 53-6.7), anti-CD45.1 (clone A20), anti-CD49b/α2 (clone DX5), anti-CD49d/α4 (clone RI-2), anti-ITGAE/αE (clone M290), anti-CD29/β1-integrin (clone Ha2/5), anti-CD18/β2-integrin (clone C71/16), anti-CD61/β3-integrin (clone 2C9.G2), anti-CD62E (clone 10E9.6), anti-CD62L (clone Mel14), anti-PSGL1 (clone 2PH1), anti-ICAM-1 (clone 3E2), anti-VCAM-1 (clone 429), anti-CD183/CXCR3 (clone CXCR3-173), anti-CD195/CCR5 (clone C34-3448), anti-GITR (clone DTA-1), anti-PD-1 (clone J43), anti-CD28 (clone 37.51), anti-CD38 (clone 90), anti-CD69 (clone H1.2F3), anti-CD44 (clone IM7), anti-CD107b (clone ABL-93) antibodies. All antibodies are from BD Biosciences. Intracellular staining of HO-1 using BD cytofix/cytoperm kit following manufacturers' recommendations were performed with anti-HO-1 antibody (clone HO-1-2, abcam) as primary labeling reagent and with anti-anti-IgG1 (clone MOPC-21) monoclonal antibody conjugated to a fluorochrome as secondary labeling reagent.

HO-1 [2] = experiment: HO-1 induction in lymph nodes of baboons after intradermal Normosang; type: in vivo, Baboons (Papio anubis); conditions: 24 h after intradermal 6.25, 12.5 or 25 mg
Experimental: Non-Human primates: Baboons (Papio anubis, from the CNRS Primatology Center, Rousset, France) were negative for all quarantine tests. Animals were housed at the large animal facility of our laboratory following the recommendations of the Institutional Ethical Guidelines of the Institut National de la Santé Et de la Recherche Médicale, France. All experiments were performed under general anaesthesia with Zoletil (Virbac, Carron, France). Three Baboons were injected intradermally in the inguinal fold with respectively 6.25 mg (500 μL), 12.5 mg (500 μL) or 25 mg (1 mL) of clinical hemin (Normosang®). A non-treated baboon has served as control. Inguinal lymph nodes were surgically removed 24 hours after intradermal injection. Single-cell suspensions for flow cytometry analysis were prepared by enzymatic lymph node disaggregation with Collagenase D (Sigma-Aldricht).
Intradermal immunization with Normosang®: Three Baboons were injected intradermally in the inguinal fold with respectively 6.25 mg (500 μL), 12.5 mg (500 μL) or 25 mg (1 mL) of clinical hemin (Normosang®). A non-treated baboon has served as control.
Inguinal lymph nodes were surgically removed 24 hours after intradermal injection. Single-cell suspensions for flow cytometry analysis were prepared by enzymatic lymph node disaggregation with Collagenase D (Sigma-Aldricht). […]

NOD mice = conditions: administered systemically before disease onset; cited from earlier work
C57BL/6 mice = experiment: Experimental Autoimmune Encephalomyelitis (EAE), prophylactic and curative intradermal treatment; type: in vivo; conditions: for protection against EAE (clinical score): i.d., low dose CoPP 0.2 mg/mouse, preventive or curative settings
Experimental: Experimental Autoimmune Encephalomyelitis (EAE) induction: Briefly, C57BL/6 were immunized by a subcutaneous injection of emulsified complete freund adjuvant (CFA, sigma aldrich) complemented with mycobacterium tuberculosis (400 μg, BD) and MOG35-55 peptide (200 μg, genecust). Pertussis toxin is injected (200 ng i.v, VWR) at the time of immunization and two days later. Clinical signs of EAE were evaluated daily and scored as follows: 0, normal; 1, limp tail; 2, partial paralysis of the hind limbs; 3, complete paralysis of the hind limbs; 4, hind-limb paralysis and forelimb weakness; 5, moribund or deceased
[…] Same injections were repeated twice at three days interval. For curative treatment, mice were treated with one injection in each ear at the EAE onset (i.e., mean clinical score, 0.72±0.1) with the same quantity than in prophylactic treatment. Same injections were repeated twice at three days interval after EAE onset.

HO-1 [3] = experiment: HO-1 expression in MHC-II+ cells of draining lymph nodes after intradermal injection (FACS); type: in vivo, mice
Experimental: (§2) Isolation of murine APCs and co-culture with autoreactive CTLs: For MHC-II^+ and F4/80^+ cells isolation, skin-draining LNs were removed 24 hours after intradermal injection in the back or in the ear. Single-cell suspensions were prepared by enzymatic lymph node disaggregation with collagenase D (Sigma-Aldricht). Cells were stained with anti-MHC-II-FITC (clone AF6-120.1, BD pharmingen) or anti-F4/80-PE (clone BM8, eBioscience) monoclonal antibodies as primary labeling reagent and respectively with anti-FITC or anti-PE microbeads (Miltenyi) as secondary reagent. After magnetic separation, we checked that purity was >82% for CD11b^+CD11c^lowLy6C^highF4/80^+ cells in CoPP-OVA immunized mice. These cells were co-cultured with autoreactive CTLs (respectively 1:1 and 1:5 APC to CTL ratio) overnight for velocity measurement and transwell migration assay.
Intradermal immunization of mice and diabetes induction: Eight to ten week-old Rip-OVAhigh mice received two intradermal injections in the back with 70 μg of CoPP (Livchem) prepared as described and 20 μg of endofree ovalbumin (Hyglos) in 10 μl. One hundred and forty micrograms of MnPP (Livchem) prepared as described (18) was added to the preparation for HO-1-inhibition experiments. Forty micrograms of Alexa Fluor® 488 ovalbumin (Molecular Probes) has been used for phagocytosis assay. For diabetes induction, mice were injected i.v. the following day with 0.5×10^5 autoreactive cytotoxic OT-I CD8^+ T cells (purity >95%) previously co-cultured or not with MHC-II^+ or F4/80^+ cells during 4 hours.
as §1

HO-1^+ MoDCs = experiment: MoDC recruitment in draining LN after intradermal injection; type: in vivo; conditions: given as dermal migration inhibitor in CoPP-injected mice
Experimental: as §2, with “assay. […]” for “assay.”

[4] = after CoPP intradermal injection

Compound	diabetes development (Rip-OVA^high mice)	HO-1 expression in THP-1 cells [1]	effect on T1D (NOD mice)	protection against EAE (clinical score) (C57BL/6 mice)	other results
ovalbumin	protection was not observed				
protoporphyrin IX containing a ferric iron ion (Heme B) with a chloride ligand [hemin]		dose-dependently expressed HO-1			HO-1 expression in human MHC-II+CD11clowCD14+ cells (Human PBMC): induced highest HO-1 expression; frequency of HO-1+ cells in draining LN (HO-1 [2]): dose-dependently increased
[C-]#[O+] [CO, carbon monoxide]			inhibit T1D in NOD mice		
MOG35-55: myelin oligodendrocyte glycoprotein (MOG) 35-55 peptide, cognate antigen in EAE (MEVGWYRSPFSRVVHLYRNGK; UniProt Q61885 63-83, looked up, fragment)				protection was not observed	
C=CC1=C(C)c2cc3[n-]c(cc4nc(cc5[n-]c(cc1n2)c(C)c5CCC(=O)[O-])C(CCC(=O)[O-])=C4C)c(C)c3C=C.[Co+2].[H+].[H+] [CoPP, Cobalt protoporphyrin]	protection was not observed	dose-dependently expressed HO-1	inhibit T1D in NOD mice	not sufficient to tolerize against EAE	duration of HO-1 induction (HO-1 [3]; [4]): at least 72 hours; earliest time HO-1 induction observed (HO-1 [3]; [4]): ≤ 24 h; localisation of HO-1 induction (HO-1 [3]; intradermal injection): restricted to the draining LNs; increase of HO-1 expression in MHC-II+ cells in draining lymph nodes (HO-1 [3]; intradermal injection, RIP-OVAhigh mice): 5.8 fold; MOG-specific CD4+ T-cell proliferation capacity (C57BL/6 mice; vs untreated mice): same proliferation capacity
O=C(O)CCCCCCC1C(=O)NC(=O)N1CCC(O)C1CCCCC1 (stereo not shown) [BW245c]					effect on MoDC recruitment (HO-1^+ MoDCs): did not affect
